Data on eight compounds can be found in patent US20240336615A1, “CYCLOPROPYL-(HETERO)ARYL-SUBSTITUTED ETHYL-SULFOXIME-PYRIDINE DERIVATIVES” (Boehringer Ingelheim Vetmedica GmbH, priority 2023, published 2024).

The structures appear in SMILES notation.

In one assay the test system is Myzus persicae. Briefly: Insecticidal test on Myzus persicae (Example 17). Type of assay: in vivo. Particulars: 144 h, foliar application on Chinese cabbage, 6 days after application, read-out: control efficacy level (control rate). From the text:
The compounds of formula (I), (Ia) and/or (Ib) of the present invention or salts thereof are separately dispersed in water and diluted to 500 ppm and 50 ppm. Chinese cabbage plants are planted in plastic pots (diameter: 8 cm, height: 8 cm). Aphids (Myzus persicae) are propagated on the plants and then the number of surviving aphids is counted. The dispersion is applied to the foliage of the potted plants. After the plants are air dried, these are kept in a greenhouse. 6 days after the application, the number of the alive insects is counted on the plants. The control rate is calculated according to the following formula and the control efficacy is evaluated according to the following criteria. [formula] • Ta: the number of alive insects before the foliar application in a treated plot • T: the number of alive insects after the foliar application in a treated plot • Ca: the number of alive insects before the foliar application in an untreated plot • C: the number of alive insects after the foliar application in an untreated plot • A: the control rate is 100% • B: the control rate is 90 to 99% • C: the control rate is 80 to 89% • D: the control rate is 50 to 79%

Assay [1] has as its system adult C. felis fleas. Briefly: Ingestion activity against adult Ctenocephalides felis, membrane feeding, alternative method (Examples 7 and 13). To be noted: Ctenocephalides felis. As for the experimental part: Selected compounds of formula (I), (Ia) and (Ib) and compound “125” of WO 2021/033141 dissolved in 100% DMSO are diluted in bovine blood with sodium heparin anti-coagulant. The resulting formulation is offered via an artificial membrane feeding system to approximately 15 adult C. felis fleas previously dispensed into 24-well plates. The plates are then incubated in a double-chambered device. Visual evaluation for mortality is performed at 48 hours post-treatment. Compound efficacy at a given dose is expressed as percentage mortality and determined by normalization to positive and negative controls. A dose response series is implemented to determine EC50 values.
Compounds of formulae (I), (Ia) and/or (Ib) dissolved in 100% DMSO are diluted in bovine blood with sodium heparin anti-coagulant. The resulting formulation is offered via an artificial membrane feeding system to approximately 15 adult C. felis fleas previously dispensed into 24-well plates. The plates are then incubated in a double-chambered device. Visual evaluation for mortality is performed at 48 hours post-treatment. Compound efficacy at a given dose is expressed as percentage mortality and determined by normalization to positive and negative controls. A dose response series is implemented to determine EC50 values.

Assay [2] has as its system adult Ctenocephalides felis fleas. Nature of the assay: Contact activity against adult Ctenocephalides felis (Example 4). To be noted: adult C. felis, coated pipe cleaner in vial, 72 hours post-treatment, read-out: EC50 (contact activity, percentage mortality). How it is done: Compounds of formulae (I), (Ia) and/or (Ib) dissolved in 100% DMSO are diluted in acetone to a desired concentration. The resulting formulation is used to coat the fibers of a 0.5-inch-long piece of pipe cleaner placed in a glass scintillation vial. The vial is capped with a rubber gasket and filter paper insert. After the acetone has evaporated, ten adult Ctenocephalides felis fleas are added to each vial. The vials are then incubated at 22° C., 80% relative humidity, and 12 hours of light/12 hours of dark until a visual evaluation for mortality is performed at 72 hours post-treatment. Compound efficacy at a given dose is expressed as percentage mortality and adjusted to remove background mortality observed in control vials containing DMSO only. A dose response series of treated vials is implemented to determine EC50 values.

The test system of another assay is Plutella xylostella. Nature of the assay: Insecticidal test on Plutella xylostella (Example 15). In kind it is in vivo. To be noted: 144 h, Chinese cabbage seedling dip, 6 days after dip treatment, read-out: activity level (corrected mortality rate). As for the experimental part: The compounds of formula (I), (Ia) and/or (Ib) of the present invention or salts thereof are separately dispersed in water and diluted to 500 ppm and 50 ppm. Ten adults of Plutella xylostella are released onto Chinese cabbage seedlings and allowed to lay eggs thereon. 2 days after the release of the adults, the seedling is dipped in the dispersion for about 30 seconds. After air dried, the seedling is kept in a room at 25° C. 6 days after the dip treatment, the numbers of the dead and alive insects are counted. The corrected mortality rate is calculated according to the following formula and the insecticidal activity is evaluated according to the following criteria.

Assay [3] relates to adult C. felis fleas. Briefly: Ingestion activity against adult Ctenocephalides felis, membrane feeding, motility (Example 6). Particulars: 48 h, bovine blood via artificial membrane, 48h post treatment, read-out: EC50 (ingestion activity, % motility reduction). As for the experimental part:
Compounds of formulae (I), (Ia) and/or (Ib) dissolved in 100% DMSO are added to bovine blood and offered via an artificial membrane feeding system to adult C. felis fleas. The motility of fleas is then visually inspected 48h post treatment. Efficacy is expressed in % motility reduction compared to controls containing blood treated with DMSO only. A dose response series is implemented to determine EC50 values.

Assay [4] concerns adult R. sanguineus ticks. Nature of the assay: Contact activity against adult Rhipicephalus sanguineus (Example 5). Particulars: coated vials, 48 hours post-treatment, read-out: EC50 (contact activity, percentage mortality). How it is done:
Compounds of formulae (I), (Ia) and/or (Ib) formulated in 100% DMSO are diluted in a solution containing acetone and Triton X-100 (0.02%). The resulting formulation is used to coat the inner walls of glass scintillation vials and the filter paper covering the cap of the vial. Once dried, ten adult R. sanguineus ticks are added to the vials. The vials are incubated at 24° C., 95% relative humidity, and 12 hours of light/12 hours of dark until evaluation. Ticks are visually evaluated for mortality at 48 hours post-treatment. Compound efficacy at a given dose is expressed as percentage mortality. A dose response series is implemented to determine EC50 values.

The test system of a further assay is Laodelphax striatellus. Nature of the assay: Insecticidal test on Laodelphax striatellus (Example 16). In kind it is in vivo. To be noted: 192 h, rice seedling dip, 3rd-instar nymphs, 8 days after inoculation, read-out: activity level (corrected mortality rate). How it is done: The compounds of formula (I), (Ia) and/or (Ib) of the present invention or salts thereof are separately dispersed in water and diluted to 500 ppm and 50 ppm. Rice plant seedlings are dipped in the dispersion for about 30 seconds. After air dried, the seedlings are put into a separate glass test tube and inoculated with ten 3rd-instar nymphs of Laodelphax striatellus and then the glass test tube is kept in a room at 25° C. 8 days after the inoculation, the numbers of the dead and alive insects are counted. The corrected mortality rate is calculated according to the following formula and the insecticidal activity is evaluated according to the following criteria.

The next assay deals with A. aegypti L1 larvae. Briefly: Activity against larvae of Aedes aegypti (Example 3). To be noted: 48 h at 27° C., read-out: EC50 (percentage of mortality, larvae). As for the experimental part: Eight A. aegypti L1 larvae in a total volume of 64 μL water are added to 384-well microplates containing compounds of formulae (I), (Ia) and/or (Ib) formulated in 100% DMSO. The plates are incubated for 48 h at 27° C. Individual well images are acquired and analyzed using a pipeline to quantitatively assess the amount of larvae biomass accumulating at the bottom of the well. The efficacy of a compound at a given dose is expressed as “percentage of mortality” and determined by comparison to average biomass descriptors of positive and negative control wells containing 1.0 μM Fipronil or DMSO only, respectively. Dose response assay are conducted to determine an EC50 value.

The next assay concerns Spodoptera litura. Nature of the assay: Insecticidal test on Spodoptera litura (Example 14). Type of assay: in vivo. To be noted: foliar, 192 h, cabbage leaf dip, 2nd-instar larvae, 8 days after inoculation, read-out: activity level (corrected mortality rate). How it is done:
The compounds of formula (I), (Ia) and/or (Ib) of the present invention or salts thereof are separately dispersed in water and diluted to 500 ppm and 50 ppm. Cabbage leaves are dipped in the dispersion for about 30 seconds. After air dried, the leaves are placed in a plastic Petri dish with a diameter of 9 cm and inoculated with ten 2nd-instar larvae of Spodoptera litura, after which the dish is closed and then allowed to stand in a room at 25° C. 8 days after the inoculation, the numbers of the dead and alive insects are counted. The corrected mortality rate is calculated according to the following formula and the insecticidal activity is evaluated according to the following criteria.
[formula] [formula] • A: the corrected mortality rate is 100% • B: the corrected mortality rate is 90 to 99% • C: the corrected mortality rate is 80 to 89% • D: the corrected mortality rate is 50 to 79%

Setting [5] is: adult C. felis, bovine blood with sodium heparin, membrane feeding, 48 hours post-treatment, read-out: EC50 (ingestion activity, percentage mortality, alternative method).
Where [6] appears, read: alternative method according to Example 7, mortality at 48 hours post-treatment, read-out: C. felis membrane feeding (ingestion/blood feeding) activity EC50.

Broadly, the mortality is the share of the test organisms that died. Turning to `CCS(=N)(=O)c1cc(-c2noc(C3(C(F)(F)F)CC3)n2)cnc1-c1nc2cc(C(F)(F)C(F)(F)F)nnc2n1C` (centres unmarked) [Compound 31], the pest or weed control at 50 ppm in the assay on Myzus persicae was found to be 100%. For the same compound, the EC50 in the assay with adult C. felis fleas [1] (setting [5]) is less than 1000 nM; in the assay on adult C. felis fleas [1] (setting [6]), 78 nM; in assay [2] it was less than 10000 nM; in the assay on adult C. felis fleas [3], less than 1000 nM; in assay [4], 10000 to 100000 nM; with A. aegypti L1 larvae, less than 40 nM. In addition, the mortality at 50 ppm in the assay on Plutella xylostella and with Laodelphax striatellus was 100% in each case.
Take `CCS(=N)(=O)c1cc(-c2cc(C3CC3)no2)cnc1-c1nc2cc(C(F)(F)C(F)(F)F)cnc2n1C` (centres unmarked) [Compound 19]: the mortality at 500 ppm in the assay on Spodoptera litura, with Plutella xylostella and with Laodelphax striatellus was 100% each time. Also, the pest or weed control at 500 ppm in the assay with Myzus persicae worked out at 100%. The EC50 in the assay on adult C. felis fleas [1] (setting [5]) is 1000 to 10000 nM; in [2], less than 10000 nM; in the assay on adult C. felis fleas [3], less than 1000 nM; in assay [4], 10000 to 100000 nM.
As for `CCS(=N)(=O)c1cc(-c2ccc(C3(F)CC3)cc2)cnc1-c1nc2cc(C(F)(F)C(F)(F)F)nnc2n1C` (centres unmarked) [Compound 14], the mortality at 500 ppm in the assay on Spodoptera litura, in the assay on Plutella xylostella and in the assay on Laodelphax striatellus was 100% in each case. In addition, in the assay on Myzus persicae, the pest or weed control at 500 ppm was 100%. Also, the EC50 is less than 1000 nM in the assay on adult C. felis fleas [1] (setting [5]); 195 nM in the assay on adult C. felis fleas [1] (setting [6]); less than 10000 nM in assay [2]; less than 1000 nM in the assay with adult C. felis fleas [3]; 10000 to 100000 nM in assay [4]; less than 40 nM with A. aegypti L1 larvae.
In the case of `CCS(=N)(=O)c1cc(-n2cc(C3CC3)cn2)cnc1-c1nc2cc(C(F)(F)C(F)(F)F)cnc2n1C` (centres unmarked) [Compound 27], the mortality at 500 ppm with Spodoptera litura, with Plutella xylostella and in the assay on Laodelphax striatellus was 100% throughout. Moreover, in the assay with Myzus persicae, the pest or weed control at 500 ppm amounted to 100%. The EC50 in the assay on adult C. felis fleas [1] (setting [5]) is less than 1000 nM; in the assay on adult C. felis fleas [1] (setting [6]), 177 nM; in [2], less than 10000 nM; in the assay on adult C. felis fleas [3] it was less than 1000 nM; in assay [4] it was less than 10000 nM.
Consider `CCS(=N)(=O)c1cc(-c2noc(C3(C(F)(F)F)CC3)n2)cnc1-c1nc2cc(C(F)(F)C(F)(F)F)cnc2n1C` (centres unmarked) [Compound 3], for which the mortality at 50 ppm with Spodoptera litura, in the assay on Plutella xylostella and with Laodelphax striatellus was 100% throughout. In addition, the pest or weed control at 50 ppm in the assay on Myzus persicae came out at 100%. Also, the EC50 in the assay with adult C. felis fleas [1] (setting [5]) was less than 1000 nM; in the assay on adult C. felis fleas [1] (setting [6]), 448 nM; in [2] it was less than 10000 nM; in the assay with adult C. felis fleas [3] it was less than 1000 nM; in [4], 10000 to 100000 nM.
Turning to `CCS(=N)(=O)c1cc(-c2cc(C3CC3)on2)cnc1-c1nc2cc(C(F)(F)C(F)(F)F)cnc2n1C` (centres unmarked) [Compound 24], the mortality at 50 ppm in the assay on Spodoptera litura and in the assay with Plutella xylostella was 100% throughout. In addition, the pest or weed control at 50 ppm in the assay on Myzus persicae came out at 100%. In addition, the pest or weed control at 500 ppm in the assay on Myzus persicae amounted to 100%. In addition, the EC50 is less than 1000 nM in the assay with adult C. felis fleas [1] (setting [5]); 839 nM with adult C. felis fleas [1] (setting [6]); less than 10000 nM in assay [2]; less than 1000 nM with adult C. felis fleas [3]; 10000 to 100000 nM in assay [4]. For the same compound, the mortality at 500 ppm in the assay on Plutella xylostella and in the assay on Laodelphax striatellus was 100% in each case.
Regarding `CCS(=N)(=O)c1cc(-c2noc(C3(F)CC3)n2)cnc1-c1nc2cc(C(F)(F)C(F)(F)F)cnc2n1C` (centres unmarked) [Compound 5], the mortality at 500 ppm with Spodoptera litura, with Plutella xylostella and with Laodelphax striatellus was 100% throughout. Besides, the pest or weed control at 500 ppm in the assay on Myzus persicae is 100%. For the same compound, the EC50 is 1000 to 10000 nM in the assay with adult C. felis fleas [1] (setting [5]); 1080 nM in the assay on adult C. felis fleas [1] (setting [6]); less than 10000 nM in assay [2]; 1000 to 10000 nM in the assay on adult C. felis fleas [3]; 10000 to 100000 nM in assay [4].
As to `CCS(=N)(=O)c1cc(-c2cnn(C3CC3)c2)cnc1-c1nc2cc(C(F)(F)C(F)(F)F)nnc2n1C` (centres unmarked) [Compound 30], the mortality at 500 ppm in the assay on Spodoptera litura, in the assay with Plutella xylostella and in the assay with Laodelphax striatellus was 100% in each case. For the same compound, the pest or weed control at 500 ppm with Myzus persicae was found to be 100%. For the same compound, the EC50 was less than 1000 nM in the assay with adult C. felis fleas [1] (setting [5]); 519 nM with adult C. felis fleas [1] (setting [6]); less than 10000 nM in assay [2]; less than 1000 nM in the assay with adult C. felis fleas [3]; 10000 to 100000 nM in assay [4].
